Measurements published in US12441730B2, “PRMT5 inhibitors” (Merck Sharp & Dohme LLC, priority 2019, dated 2025).
Like-named read-outs stand apart in the source and are kept apart here.

Experiments:
[1] = biological target: T1, Full-length (FL)-PRMT5-MEP50 enzyme complex (Homo sapiens, UniProt O14744); test: PRMT5-MEP50 Enzyme Methylation Assay (Version A); type: biochemical
T1 construct: Full-length (FL)-PRMT5-MEP50 enzyme complex (recombinant proteins from baculovirus-transfected Sf21 cells: FL-PRMT5; MW=73837 kDa and FL-MEP50; MW=38614); made in house; host or cells: baculovirus-transfected Sf21 cells
Experimental: PRMT5-MEP50 Enzyme Methylation Assay (Version A)
PRMT5-MEP50 biochemical assay is a direct measurement of the methylation activity of the enzyme complex on a short peptide substrate derived from the N-terminus of H4 histone. Methylation experiment was performed with recombinant PRMT5-MEP50 protein complex. The assessment of inhibitory effect of small molecules was measured by the effectiveness of the compounds to inhibit this reaction (EC50).
In this assay, the potency (EC50) of each compound was determined from a twenty-point (1:2 serial dilution; top compound concentration of 100000 nM) titration curve using the following outlined procedure. To each well of a white ProxiPlus 384 well-plate, 100 nL of compound (1% DMSO in final assay volume of 10 μL) was dispensed, followed by the addition of 8 μL of 1× assay buffer (50 mM Bicine pH 8.0, 1 mM DTT, 0.004% Tween20, 0.01% BSA) containing 1.25 nM of Full-length (FL)-PRMT5-MEP50 enzyme complex (recombinant proteins from baculovirus-transfected Sf21 cells: FL-PRMT5; MW=[…] and FL-MEP50; MW=38614) and 1 μL of 150 μM S-(5′-Adenosyl)-L-Methionine Chloride (SAM). A plate were sealed and placed in a 37° C. humidified chamber for a 60 minutes pre-incubation with compound. Subsequently, each reaction was initiated by the addition of 1 μL 1× assay buffer containing 750 nM biotinylated H4R3(Me1) peptide. The final reaction in each well of 10 μL consists of 1.0 nM PRMT5-MEP50, 75 nM biotinylated-peptide, and 15 μM SAM. Methylation reactions were allowed to proceed for 150 minutes in a sealed plate at 37° C. Reactions were immediately quenched by the addition of 1 μL of 5% formic acid. A plate was then frozen and shipped to SAMDI™ Tech Inc. to determine the percent conversion from H4R3(Me1) to H4R3(Me2). Dose-response curves were generated by plotting percent effect (% product conversion; Y-axis) vs. Log 10 compound concentrations (X-axis). EC50 values were determined by non-linear regression according to models for either sigmoidal (4 parameters) or biphasic (7 parameters) dose-response curves.

[2] = tested on: symmetric dimethylation of arginine (SDMA) of PRMT5 substrates in MCF-7 cells; test: PRMT5 Cell Target Engagement (TE) Assay; type: cell-based; conditions: 3 days treatment, SDMA high content imaging
Excerpt: PRMT5 Cell Target Engagement (TE) Assay
The PRMT5 TE assay is a biomarker assay for identifying compounds that inhibit symmetric dimethylation of arginine (SDMA) of PRMT5 substrates. The following substrates have been reported for PRMT5: histone H2A and H4 R3, Histone H3 R2, Histone H3 R8, spliceosome Sm proteins, ribosomal protein RPS10, p53, FEN1, nucleoplasmin, nucleolin, EGFR and EBNA. The assay focuses on detecting symmetrically dimethylated nuclear proteins using high content imaging technology. Detection of the expression of symmetrically dimethylated nuclear proteins is through a mixture of primary rabbit monoclonal antibodies to SDMA (CST 13222), which in turn recognized by an Alexafluor 488 dye-conjugated anti-rabbit IgG secondary antibody. The IN Cell Analyzer 2200 or Opera-Phenix measures nuclear Alexafluor 488 fluorescent dye intensity that is directly related to the level of expression of symmetrically dimethylated nuclear proteins at the single cell level. Nuclear AF488 dye intensities are compared to the mean value for DMSO treated cells (MIN) to report percent of inhibition for each compound-treated well.
In this assay, the cell potency (EC50) of each compound was determined from a ten point (1:3 serial dilution; top compound concentration of 10000 nM) titration curve using the following outlined procedure. Each well of a BD falcon collagen coated black/clear bottom 384-well plate was seeded with 4000 MCF-7 cells in 30 μl media and allowed to attach for 5 h. Media is ATCC-formulated Eagle's Minimum Essential Medium, Catalog No. 30-2003. To make the complete growth medium, the following components were added to the base medium: 0.01 mg/mL human recombinant insulin; fetal bovine serum to a final concentration of 10%. Additional 30 μl of media containing 2× compounds were added to each well. Cells were treated for 3 days in 37° C. CO2 incubator. On day 3, cells were fixed with Cytofix, permeabilized with 0.4% Triton-X-100/Cytofix, and washed with D-PBS without Ca/Mg. Cells were blocked with Licor Odessey blocking reagent for 1 h at room temperature, followed by incubation with anti-SDMA (1:1000) antibody at 4° C. overnight. 1° antibody was removed, followed by three washings with DPBS without Ca/Mg and 0.05% Tween20. Hoechst (5 μg/mL), Cell Mask deep stain (1:2000) and Alexa488-conjugated goat anti-rabbit IgG (2 μg/mL) was added for 1 h at room temperature. A final washing step (three washes) was performed before sealing plate for imaging on In Cell Analyzer 2200 or Opera-Phenix. Images from analyzer were uploaded to Columbus (at WP or BOS) for image analysis. IC50 values were determined by 4 parameters robust fit of percent fluorescence units vs. (Log10) compound concentrations.

[3] = second value of 7 parameter biphasic fit, read-out: Enzyme Methylation Assay Version A (EC50 2)
[4] = single EC50 = 4 parameter single site sigmoidal fit, EC50 1 = first value of 7 parameter biphasic fit, read-out: Enzyme Methylation Assay Version A (EC50 or EC50 1)

T1 sequence (O14744 whole entry): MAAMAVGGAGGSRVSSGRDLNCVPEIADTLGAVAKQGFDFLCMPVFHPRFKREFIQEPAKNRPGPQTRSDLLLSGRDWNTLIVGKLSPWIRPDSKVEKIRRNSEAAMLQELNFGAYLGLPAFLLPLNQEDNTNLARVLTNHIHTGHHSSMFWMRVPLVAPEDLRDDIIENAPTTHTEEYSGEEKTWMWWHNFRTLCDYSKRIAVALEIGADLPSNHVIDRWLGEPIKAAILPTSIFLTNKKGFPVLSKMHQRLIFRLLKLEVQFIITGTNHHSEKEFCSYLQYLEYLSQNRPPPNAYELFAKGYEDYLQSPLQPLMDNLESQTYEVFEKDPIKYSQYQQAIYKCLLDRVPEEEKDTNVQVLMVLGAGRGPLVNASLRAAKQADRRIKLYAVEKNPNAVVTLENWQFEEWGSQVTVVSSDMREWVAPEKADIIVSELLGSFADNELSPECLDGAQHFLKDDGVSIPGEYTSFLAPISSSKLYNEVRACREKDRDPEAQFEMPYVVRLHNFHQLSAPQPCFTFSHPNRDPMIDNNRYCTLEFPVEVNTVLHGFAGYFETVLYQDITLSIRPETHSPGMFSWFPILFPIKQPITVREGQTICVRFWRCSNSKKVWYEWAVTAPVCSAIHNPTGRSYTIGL
T1 sequence (Q9BQA1 whole entry partner): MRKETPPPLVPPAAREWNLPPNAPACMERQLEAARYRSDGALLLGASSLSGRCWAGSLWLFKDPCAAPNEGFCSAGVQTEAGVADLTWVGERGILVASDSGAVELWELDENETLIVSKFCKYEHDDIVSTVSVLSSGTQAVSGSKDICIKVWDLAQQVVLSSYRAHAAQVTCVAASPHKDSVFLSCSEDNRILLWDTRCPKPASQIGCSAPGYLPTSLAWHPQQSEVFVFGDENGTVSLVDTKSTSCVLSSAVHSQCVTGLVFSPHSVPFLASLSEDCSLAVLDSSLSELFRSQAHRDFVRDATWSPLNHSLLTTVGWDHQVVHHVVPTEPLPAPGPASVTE

| SMILES | EC50 [1, 3] | EC50 [1, 4] | EC50 ([2]; Homo sapiens, MCF7, 72 h) | EC50 [2] |
| --- | --- | --- | --- | --- |
| O=C(c1cn2ncnc2cn1)N1CC[C@]2(Cc3ccccc3CN2)[C@H](O)C1 [Example 194, [(3R,3′R)-3′-hydroxy-1,4-dihydro-1′H,2H-spiro[isoquinoline-3,4′-piperidin]-1′-yl]([1,2,d]triazolo[1,5-a]pyrazin-6-yl)methanone] | ≥ 100000 nM | 479 nM | ≥ 10000 nM | – |
| CO[C@H](C)c1cc(-c2cccnc2C)cn2cc(C(=O)N3CC[C@]4(Cc5ccccc5CN4)[C@H](O)C3)nc12 [Example 239, [(3R,3′R)-3′-hydroxy-1,4-dihydro-1′H,2H-spiro[isoquinoline-3,4′-piperidin]-1′-yl]{8-[(1R)-1-methoxyethyl]-6-(2-methyl-3-pyridinyl)imidazo[1 2-a]pyridin-2-yl}methanone] | – | 0.613 nM | 3.33 nM | – |
| COc1cc2nc(C(=O)N3CC[C@]4(Cc5ccccc5CN4)[C@H](O)C3)cn2cc1Br [Example 125] | 298 nM | 0.515 nM | 13.8 nM | – |
| CN1CCC(Oc2nc(Br)cn3cc(C(=O)N4CC[C@]5(Cc6ccccc6CN5)[C@H](O)C4)nc23)C1=O (single isomer, unassigned) [Example 95, (R or S)-3-((6-bromo-2-((3R,3′R)-3′-hydroxy-1,4-dihydro-2H-spiro[isoquinoline-3,4′-piperidine]-1′-carbonyl)imidazo[1,2-a]pyrazin-8-yl)oxy)-1-methylpyrrolidin-2-one] | 468 nM | 1.01 nM | – | 28.7 nM |
| CC(O)c1cc(Br)cn2cc(C(=O)N3CC[C@]4(Cc5ccccc5CN4)[C@H](O)C3)nc12 (single isomer, unassigned) [Example 33, (6-bromo-8-((S or R)-1-hydroxyethyl)imidazo[1,2-a]pyridin-2-yl)((3R,3’R)-3′-hydroxy-1,4-dihydro-2H-spiro[isoquinoline-3,4′-piperidin]-1′-yl)methanone] | 215 nM | 0.565 nM | – | 3.71 nM |
| Cc1cn2cc(C(=O)N3CC[C@]4(Cc5ccccc5CN4)[C@H](O)C3)nc2c(O)n1 [Example 66, 2-{[(3R,3′R)-3′-hydroxy-1,4-dihydro-1′H,2H-spiro[isoquinoline-3,4′-piperidin]-1′-y1]carbonyl}-6-methylimidazo[1,2-a]pyrazin-8(7H)-one] | 9330 nM | 13.7 nM | 4410 nM | – |
| Cc1c(Br)cnc2nc(C(=O)N3CC[C@]4(Cc5ccccc5CN4)[C@H](O)C3)cn12 [Example 119, (6-bromo-5-methylimidazo[1,2-a]pyrimidin-2-yl)[(3R,3′R)-3′-hydroxy-1,4-dihydro-1′H,2H-spiro[isoquinoline-3,4′-piperidin]-1′-yl]methanone] | 6460 nM | 11.8 nM | 274 nM | – |
| CC1(C)CC1(C#N)c1cnc2nc(C(=O)N3CC[C@]4(Cc5ccccc5CN4)[C@H](O)C3)cn2c1 (single isomer, unassigned) [Example 148] | 1910 nM | 1.11 nM | – | 121 nM |
| O=C(c1cn2c(n1)C(C1CCOC1)CC(C(F)(F)F)C2)N1CC[C@]2(Cc3ccccc3CN2)[C@H](O)C1 (single isomer, unassigned) [Example 161, ((3R,3′R)-3′-hydroxy-1,4-dihydro-2H-spiro[isoquinoline-3,4′-piperidin]-1′-yl)((6S,8S or 6R,8R)-8-((S or R)-tetrahydrofuran-3-yl)-6-(trifluoromethyl)-5,6,7,8-tetrahydroimidazo[1,2-a]pyridin-2-yl)methanone] | 9120 nM | 5.9 nM | – | 374 nM |
| CO[C@H](C)c1cc(N2CCC(n3ccnc3)C2)cn2cc(C(=O)N3CC[C@]4(Cc5ccccc5CN4)[C@H](O)C3)nc12 (stereo partly drawn) [Example 230, [(3R,3′R)-3′-hydroxy-1,4-dihydro-1′H,2H-spiro[isoquinoline-3,4′-piperidin]-1′-yl]{6-[3-(1H-imidazol-1-yl)-1-pyrrolidinyl]-8-[(1R)-1-methoxyethyl]imidazo[1,2-a]pyridin-2-yl}methanone] | – | 5.38 nM | 124 nM | – |
| COc1ccc2nc(C(=O)N3CC[C@]4(Cc5ccccc5CN4)[C@H](O)C3)cn2c1 [Example 43, ((3R,3’R)-3′-hydroxy-1,4-dihydro-2H-spiro[isoquinoline-3,4′-piperidin]-1′-yl)(6-methoxyimidazo[1,2-a]pyridin-2-yl)methanone] | 1440 nM | 3.22 nM | 19.1 nM | – |
| O=C(c1cn2cc(O)ccc2n1)N1CC[C@]2(Cc3ccccc3CN2)[C@H](O)C1 [Example 39, ((3R,3’R)-3′-hydroxy-1,4-dihydro-2H-spiro[isoquinoline-3,4′-piperidin]-1′-yl)(6-hydroxyimidazo[1,2-a]pyridin-2-yl)methanone] | 29200 nM | 95.5 nM | 571 nM | – |
| CC(O)c1cc(C(F)(F)F)cn2cc(C(=O)N3CC[C@]4(Cc5ccccc5CN4)[C@H](O)C3)nc12 (single isomer, unassigned) [Example 108] | 207 nM | 4.25 nM | 12.9 nM | – |
| Cc1ccc(C(=O)N2CC[C@]3(Cc4ccccc4CN3)[C@H](O)C2)c(Br)n1 [Example 197, (2-bromo-6-methyl-3-pyridinyl)[(3R,3′R)-3′-hydroxy-1,4-dihydro-1′H,2H-spiro[isoquinoline-3,4′-piperidin]-1′-yl]methanone] | 16000 nM | 14.2 nM | 1310 nM | – |
| N#Cc1cc(Cl)c2nc(C(=O)N3CC[C@]4(Cc5ccccc5CN4)[C@H](O)C3)cn2c1 [Example 215, 8-chloro-2-{[(3R,3′R)-3′-hydroxy-1,4-dihydro-1′H,2H-spiro[isoquinoline-3,4′-piperidin]-1′-yl]carbonyl}imidazo[1,2-a]pyridine-6-carbonitrile] | – | 56.7 nM | 122 nM | – |
| N#CCCc1cc(C(F)(F)F)cn2cc(C(=O)N3CC[C@]4(Cc5ccccc5CN4)[C@H](O)C3)nc12 [Example 34, 3-(2-((3R,3’R)-3′-hydroxy-1,4-dihydro-2H-spiro[isoquinoline-3,4′-piperidine]-1′-carbonyl)-6-(trifluoromethyl)imidazo[1,2-a]pyridin-8-yl)propanenitrile] | 229 nM | 0.909 nM | 4 nM | – |
| Cc1cc(Br)c2nc(C(=O)N3CC[C@]4(Cc5ccccc5CN4)[C@H](O)C3)cn2c1 [Example 49, (8-bromo-6-methylimidazo[1,2-a]pyridin-2-yl)((3R,3’R)-3′-hydroxy-1,4-dihydro-2H-spiro[isoquinoline-3,4′-piperidin]-1′-yl)methanone] | 347 nM | 1.15 nM | 3.88 nM | – |
